{
  "source": "paper PMC3578862",
  "about": "“Single Residue Mutation in Active Site of Serine Acetyltransferase Isoform 3 from Entamoeba histolytica Assists in Partial Regaining of Feedback Inhibition by Cysteine” (PLoS ONE, 2013)",
  "key": {"[1]": {"target": "T1, Serine acetyltransferase isoform 3 (EhSAT3) (Entamoeba histolytica, UniProt Q401L4, S208H)", "T1 construct": "gene SAT 3", "experiment": "SAT activity assay at […] nm, […] serine; […] inhibition at […]", "format": "biochemical"}, "[2]": {"target": "T2, Serine acetyltransferase isoform 1 (EhSAT1) (Entamoeba histolytica, UniProt Q9U8X2, H208S)", "T2 construct": "gene EhSAT", "experiment": "SAT activity assay at […] nm, […] serine", "format": "biochemical"}, "[3]": {"test_system": "N[C@@H](CO)C(=O)O", "experiment": "purified protein", "format": "biochemical, Entamoeba histolytica", "conditions": "acetyl coenzyme A active site"}},
  "data": [
    {"molecule": "N[C@@H](CS)C(=O)O", "note": "[L-cysteine]", "values": [
      {"measurement": "IC50", "setting": "[1]", "result": 3500, "unit": "µM"},
      {"measurement": "IC50", "setting": "[2]", "result": 170, "unit": "µM"}
    ]},
    {"molecule": "Serine acetyltransferase isoform 1 (EhSAT1) (Entamoeba histolytica; H208S)", "values": [
      {"measurement": "Km", "setting": "[3]", "result": 68.4, "unit": "µM"}
    ]},
    {"molecule": "Serine acetyltransferase isoform 3 (EhSAT3) (Entamoeba histolytica; S208H)", "values": [
      {"measurement": "Km", "setting": "[3]", "result": 185.5, "unit": "µM"}
    ]}
  ]
}
